Test results from PubChem BioAssay (NCI).
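A five-concentration, 48-hour dose response in 96-well plates underlies each endpoint, interpolated linearly between surrounding concentrations. GI50 marks 50% less growth. TGI marks complete inhibition of growth.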

Tests used:
Experiment in all cases: growth of human tumour cells (NCI), 48 h
[1] = test system: RPMI-8226 leukemia
[2] = test system: OVCAR-3 ovarian
[3] = test system: CAKI-1 renal
[4] = test system: COLO 205 colon
[5] = test system: BT-549 breast
[6] = test system: HCT-116 colon
[7] = test system: UO-31 renal
[8] = test system: HS 578T breast
[9] = test system: T-47D breast
[10] = test system: SF-268 CNS

Row | Compound | GI50 [1] [µM] | TGI [1] [µM] | GI50 [2] [µM] | TGI [2] [µM] | GI50 [3] [µM] | TGI [3] [µM] | GI50 [4] [µM] | TGI [4] [µM] | GI50 [5] [µM] | TGI [5] [µM] | GI50 [6] [µM] | TGI [6] [µM] | GI50 [7] [µM] | TGI [7] [µM] | GI50 [8] [µM] | TGI [8] [µM] | GI50 [9] [µM] | TGI [9] [µM] | GI50 [10] [µM] | TGI [10] [µM]
1 | COc1ccc(S(=O)(=O)N(Cc2ccc3c(n2)C=CC(C)(C)O3)C2CCC2)cc1OC | 0.0331 | 0.163 | < 0.01 | 0.0955 | < 0.01 | 0.145 | < 0.01 | 0.0537 | < 0.01 | 0.171 | < 0.01 | 4.05 | < 0.01 | 0.871 | < 0.01 | 0.0677 | < 0.01 | 0.231 | < 0.01 | 1.13
2 | COC(=O)[C@]12CCC(C)(C)C[C@H]1C1=CC[C@@H]3[C@@]4(C)C/C(=C/c5cccnc5)C(=O)C(C)(C)[C@@H]4CC[C@@]3(C)[C@]1(C)CC2 | 2.31 | 6.39 | 4.16 | 27.9 | 6.87 | 22.3 | 6.51 | 25.3 | 2.56 | 7.93 | 2.71 | 12.1 | 3.21 | 24.4 | 22.7 | > 100 | 2.96 | 28 | 11.8 | 54
3 | O=C(CCCSc1nc(-c2ccc(Cl)cc2)cc(-c2ccc(Cl)cc2)n1)NO | 1.38 | 36.7 | 0.413 | 2.14 | 0.334 | 10.7 | 2.06 | 6.21 | 3.21 | 18.6 | 0.532 | 17 | 0.32 | 2.35 | 4.63 | 22.8 | 1.37 | 16.7 | 1.21 | 7.72
4 | COc1cc([N+](=O)[O-])ccc1NC(=O)C(F)(F)F | – | > 100 | – | > 100 | – | > 100 | – | > 100 | – | > 100 | – | > 100 | – | > 100 | – | > 100 | – | > 100 | – | > 100
5 | CC(=O)[O][Hg][c]1c(C)c(C)c(C)c(C)c1C | 1.8 | 6.22 | 1.82 | 3.31 | 3.02 | 7.69 | 2.7 | 7.14 | 1.16 | 2.38 | 3.38 | 11.8 | 3.45 | 7.74 | 0.899 | 3.52 | 1.36 | 3.74 | 0.549 | 2.11
6 | O=C(O)C(Sc1ccc(Cl)cc1)Sc1ccc(Cl)cc1 | – | > 100 | – | 82.6 | – | > 100 | – | 59 | – | > 100 | – | > 100 | – | > 100 | – | > 100 | – | > 100 | – | > 100
7 | CNC1C(=O)C(C)C(O)(C(CC(C)C(O)/C=C/C=C/CNC(=O)C(C)(C)C(O)\C(C)=C/C=C\C=C\Cc2cnc(C)o2)OC)C12C(=O)OC2COC (stereo unspecified) (tested in a mixture with another compound) | – | 42.4 | – | 34.6 | – | > 100 | – | 20.2 | – | > 100 | – | > 49.9 | – | 67.3 | – | > 100 | – | > 93.3 | – | 42.9
8 | COc1ccc(-c2cc3c(nn2)-c2ccccc2C3=O)cc1 | > 100 | > 100 | > 100 | > 100 | > 100 | > 100 | > 100 | > 100 | > 100 | > 100 | 70.2 | > 100 | > 100 | > 100 | > 100 | > 100 | > 100 | > 100 | > 100 | > 100
9 | Cn1cc(-c2csc(-c3cccc(F)c3)n2)c2cccnc21 | 25.2 | > 100 | 19 | 33.9 | 16.2 | 40.5 | 15.7 | 30.1 | 20.9 | 56.1 | 14.2 | 27.3 | 15.9 | 50.6 | 19.3 | 45.5 | 14.4 | 51.7 | 17.3 | 32.1
10 | COc1ccc(C2CC(=O)c3c(OC)cc(OC)cc3O2)cc1 (stereo unspecified) | > 100 | > 100 | > 100 | > 100 | > 100 | > 100 | > 100 | > 100 | > 100 | > 100 | > 100 | > 100 | > 100 | > 100 | > 100 | > 100 | > 100 | > 100 | > 100 | > 100
11 | COc1ccc(/C(=N/Nc2ccc([N+](=O)[O-])cc2)Sc2cc(Cl)c(C)cc2S(N)(=O)=O)cc1 | 5.11 | 13.6 | 2.52 | 7.4 | 4.44 | 9.47 | 8.57 | 33.3 | 22.2 | 42.3 | 2.31 | 5.48 | 8.49 | > 41.7 | 4.82 | 16 | 7.16 | 19.2 | 6.66 | 19.9
12 | CCCCNC(=O)NS(=O)(=O)c1ccc(N2N=C(c3ccc(C)cc3C)CC2c2ccc(N(C)C)cc2)cc1 (stereo unspecified) | 2.99 | 9.66 | 2.5 | 5.72 | 3.38 | > 100 | 3.19 | 7.56 | 4.11 | 37.1 | 3.86 | > 100 | 4.57 | > 100 | 3.95 | > 100 | 5.16 | > 100 | 5.73 | > 100
13 | Cc1cc(C)cc(Nc2cc(C)nc3nc(C(F)(F)F)nn23)c1 | > 100 | > 100 | > 100 | > 100 | > 100 | > 100 | > 100 | > 100 | 39.6 | > 100 | 85 | > 100 | > 100 | > 100 | 34.9 | > 100 | > 100 | > 100 | 44.4 | > 100
14 | COc1cccc(N=Cc2c3ccccc3c(=O)n3c2oc2ccccc23)c1 | 6.54 | 42.6 | 4.44 | 45.3 | 2.92 | 11.5 | 34.5 | > 100 | 21.9 | > 100 | 5.62 | > 100 | 42.7 | > 100 | 34.9 | > 100 | > 100 | > 100 | 37.1 | > 100
15 | CCC1(O)C(=O)OCc2c1cc1n(c2=O)Cc2cc3c(N)cccc3nc2-1 (stereo unspecified) | 0.0279 | 0.879 | – | 3.02 | – | 0.272 | – | 6.41 | – | 4.95 | – | 0.735 | – | 0.126 | – | 22.8 | 0.0191 | 0.654 | – | 0.579
16 | COc1cc2c3c(n(CCCBr)c(=O)c2cc1OC)-c1ccc(NC(C)=O)cc1C3=O | 5.28 | 27.2 | 4.37 | 24.9 | 1.09 | 7.21 | 14.1 | > 100 | 8 | 34.7 | 2.58 | 18.1 | 5.68 | 65 | 40.6 | > 100 | 1.84 | > 100 | 2.11 | > 100
17 | CC(C)CC(N)C(=O)O (stereo unspecified) | – | > 100 | – | > 100 | – | > 100 | – | > 100 | – | > 100 | – | > 100 | – | > 100 | – | > 100 | – | > 100 | – | > 100
18 | CN1C(NC(=O)c2ccc(Cl)nc2)=NS(=O)(=O)c2cc(Cl)ccc21 | > 100 | > 100 | > 100 | > 100 | > 100 | > 100 | > 100 | > 100 | > 100 | > 100 | > 100 | > 100 | > 100 | > 100 | > 100 | > 100 | > 100 | > 100 | > 100 | > 100
19 | O=C(O)c1cc(N=Nc2ccc([As](=O)(O)O)cc2)ccc1O | – | > 100 | – | > 100 | – | > 100 | – | > 100 | – | > 100 | – | > 100 | – | > 100 | – | > 100 | – | > 100 | – | > 100
20 | COc1cc2c(/C=C3/C(=O)Nc4cccc(Cl)c43)c(Cl)n(Cc3ccccc3)c2cc1C | 4.21 | > 23.6 | 8.84 | 25.2 | 2.46 | 31.4 | 2.94 | 21.8 | 6.98 | 29.1 | 4.19 | 55.6 | 5.69 | > 100 | 4.34 | 66.5 | 14 | > 100 | 13.1 | > 71.5
21 | CC(C)(C)OC(=O)N(CCCN(CCn1c2c(c3ccccc3c1=O)C(=O)c1ccccc1-2)C(=O)OC(C)(C)C)CCn1c2c(c3ccccc3c1=O)C(=O)c1ccccc1-2 | 7.21 | 48.6 | 21.2 | > 50 | > 50 | > 50 | > 50 | > 50 | > 50 | > 50 | 22.7 | > 50 | > 50 | > 50 | 41.1 | > 50 | > 50 | > 50 | 28.2 | > 50
22 | C[C@]12CC[C@@H]3c4ccc(Oc5nc(N6CC6)nc(N6CC6)n5)cc4CC[C@H]3[C@@H]1CCC2=O | 2.17 | 7.58 | 3.86 | 15.3 | 0.641 | 43.7 | 3.35 | 16.2 | 5.92 | 25.3 | 2.46 | 18.8 | 2.68 | 13.2 | 4.64 | 44.8 | 3.55 | 19.4 | 2.05 | 17.9
23 | Cn1cc(C2=C(c3cn(C)c4c(N)cccc34)C(=O)NC2=O)c2ccccc21 | 2.44 | 12.5 | 0.507 | 1.45 | 0.857 | > 25 | 1.99 | 9.96 | 1.01 | 6.66 | 1.03 | > 20.6 | 1.1 | 10.5 | 0.618 | 19 | 1.31 | 11.9 | 2.86 | > 25
24 | COc1ccc2cc(C(=O)/C=C/c3cccc(OC)c3OC)ccc2c1 | 6.86 | > 100 | 19 | 35.5 | 11.6 | 31.9 | 20.4 | 78.5 | 20.6 | 63.1 | 3.62 | 13.3 | 17.5 | 31.3 | 25.5 | 73.9 | 3.9 | 35.5 | 24.2 | 50.8
25 | Cn1cc(C2=C(c3cn(CCCN=C(N)N)c4ccccc34)C(=O)NC2=O)c2ccccc21 | > 25 | > 25 | > 25 | > 25 | > 25 | > 25 | 9.76 | > 25 | > 25 | > 25 | > 25 | > 25 | > 25 | > 25 | > 25 | > 25 | > 25 | > 25 | > 25 | > 25
26 | Cc1cc(C2CCCCC2)n(O)c(=O)c1 | – | 46.8 | 0.521 | 54 | 1.8 | 21.4 | 4.46 | > 100 | 6.19 | > 100 | 1.02 | > 100 | 0.552 | > 100 | 46 | > 100 | 2.63 | > 100 | 1.27 | > 100
